Molecular target: T1, full length SGK1 (Homo sapiens, UniProt O00141)
T1 construct: 125 μM full length SGK1 (Life Technologies Part #PR7358A); purchased Life Technologies PR7358A
T1 sequence (O00141 1-431): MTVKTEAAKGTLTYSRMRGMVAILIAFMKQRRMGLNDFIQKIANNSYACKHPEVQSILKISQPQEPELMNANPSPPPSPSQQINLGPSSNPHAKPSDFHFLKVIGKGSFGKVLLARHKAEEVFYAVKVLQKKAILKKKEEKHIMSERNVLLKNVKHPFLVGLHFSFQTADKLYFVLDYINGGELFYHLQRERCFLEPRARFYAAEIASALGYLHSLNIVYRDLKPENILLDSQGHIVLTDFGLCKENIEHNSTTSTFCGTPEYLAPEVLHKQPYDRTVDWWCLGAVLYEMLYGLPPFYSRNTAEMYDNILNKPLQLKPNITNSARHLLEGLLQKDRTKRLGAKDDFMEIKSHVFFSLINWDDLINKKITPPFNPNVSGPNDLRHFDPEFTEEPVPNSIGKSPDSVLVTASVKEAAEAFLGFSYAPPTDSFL
Assay: SGK1 inhibition Assay A (Caliper LabChip electrophoretic separation of fluorescent peptide substrate and phosphorylated product)
Assay type: biochemical
Conditions: Assay A; 20 μM ATP, 40 min incubation; read-out: SGK1 IC50

IC50	Compound
16 nM	COC(=O)N1CC=C(c2cc(N3CCC[C@@H](NC(=O)c4sc(Cl)cc4OCCN4CC(F)(F)C4)C3)c3c(N)ncnn23)C1 [Example 288, Methyl (R)-3-(4-amino-5-(3-(5-chloro-3-(2-(3,3-difluoroazetidin-1-yl)ethoxy)thiophene-2-carboxamido)piperidin-1-yl)pyrrolo[2,1-f][1,2,4]triazin-7-yl)-2,5-dihydro-1H-pyrrole-1-carboxylate]
8 nM	COC(=O)N1CC=C(c2cc(N3CCC[C@@H](NC(=O)c4sc(Cl)cc4OCC4CCNCC4)C3)c3c(N)ncnn23)C1 [Example 571, Methyl (R)-3-(4-amino-5-(3-(5-chloro-3-(piperidin-4-ylmethoxy)thiophene-2-carboxamido)piperidin-1-yl)pyrrolo[2,1-f][1,2,4]triazin-7-yl)-2,5-dihydro-1H-pyrrole-1-carboxylate]
32 nM	Cn1cc(C(=O)N[C@@H]2CCCN(c3cc(-c4ccc(S(C)(=O)=O)cc4)n4ncnc(N)c34)C2)cn1 [Example 28, (R)-N-(1-(4-amino-7-(4-(methylsulfonyl)phenyl)pyrrolo[2,1-f][1,2,4]triazin-5-yl)piperidin-3-yl)-1-methyl-1H-pyrazole-4-carboxamide]
2 nM	CS(=O)(=O)N1CC=C(c2cc(N3CCC[C@@H](NC(=O)c4ccc(Cl)s4)C3)c3c(N)ncnn23)C1 [Example 134, (R)—N-(1-(4-amino-7-(1-(methylsulfonyl)-2,5-dihydro-1H-pyrrol-3-yl)pyrrolo[2,1-f][1,2,4]triazin-5-yl)piperidin-3-yl)-5-chlorothiophene-2-carboxamide]
5 nM	CC(=O)N1CC=C(c2cc(N3CCC[C@@H](NC(=O)c4csc(C)c4)C3)c3c(N)ncnn23)C1 [Example 720, (R)-N-(1-(7-(1-acetyl-2,5-dihydro-1H-pyrrol-3-yl)-4-aminopyrrolo[2,1-f][1,2,4]triazin-5-yl)piperidin-3-yl)-5-methylthiophene-3-carboxamide]
62 nM	CC(=O)N1CC=C(c2cc(N3CCC[C@@H](NC(=O)c4sc(C)nc4C)C3)c3c(N)ncnn23)C1 [Example 472, (R)-N-(1-(7-(1-acetyl-2,5-dihydro-1H-pyrrol-3-yl)-4-aminopyrrolo[2,1-f][1,2,4]triazin-5-yl)piperidin-3-yl)-2,4-dimethylthiazole-5-carboxamide]
98 nM	CCn1cc(-c2cc(N3CCC[C@@H](NC(=O)c4sc(Cl)cc4OCCN(C)C)C3)c3c(N)ncnn23)cc(C)c1=O [Example 692, (R)—N-(1-(4-amino-7-(1-ethyl-5-methyl-6-oxo-1,6-dihydropyridin-3-yl)pyrrolo[2,1-f][1,2,4]triazin-5-yl)piperidin-3-yl)-5-chloro-3-(2-(dimethylamino)ethoxy)thiophene-2-carboxamide]
41 nM	CS(=O)(=O)c1ccc(-c2cc(N3CCC[C@@H](NC(=O)c4cccc(C(F)(F)F)c4)C3)c3c(N)ncnn23)cc1 [Example 24, (R)-N-(1-(4-amino-7-(4-(methylsulfonyl)phenyl)pyrrolo[2,1-f][1,2,4]triazin-5-yl)piperidin-3-yl)-3-(trifluoromethyl) benzamide]
6 nM	CN1CCC(Oc2cc(C3CC3)sc2C(=O)N[C@@H]2CCCN(c3cc(-c4ccc(C#N)nc4)n4ncnc(N)c34)C2)CC1 [Example 381, (R)-N-(1-(4-amino-7-(6-cyanopyridin-3-yl)pyrrolo[2,1-f][1,2,4]triazin-5-yl)piperidin-3-yl)-5-cyclopropyl-3-((1-methylpiperidin-4-yl)oxy)thiophene-2-carboxamide]
53 nM	Nc1ncnn2c(-c3ccnc(C(F)F)c3)cc(N3CCC[C@@H](NC(=O)c4nc5ccccc5[nH]4)C3)c12 [Example 489, (R)-N-(1-(4-amino-7-(2-(difluoromethyl)pyridin-4-yl)pyrrolo[2,1-f][1,2,4]triazin-5-yl)piperidin-3-yl)-1H-benzo[d]imidazole-2-carboxamide]
0.3 nM	N#Cc1ccc(-c2cc(N3CCC[C@@H](NC(=O)c4ccc(Cl)s4)C3)c3c(N)ncnn23)cn1 [Example 241]
1 nM	(R)-N-(1-(4-amino-7-(1-(isoxazole-3-carbonyl)-2,5-dihydro-1H-pyrrol-3-yl)pyrrolo[2,1-f|[1,2,4]triazin-5-yl)piperidin-3-y1)-5-chloro-3-(2-(dimethylamino)ethoxy)thiophene-2-carboxamide [Example 906]
28 nM	COC(=O)N1CC=C(c2cc(N3CCC[C@@H](NC(=O)c4sc(C(F)F)cc4OCCN4CCOCC4)C3)c3c(N)ncnn23)C1 [Example 336, methyl (R)-3-(4-amino-5-(3-(5-(difluoromethyl)-3-(2-morpholinoethoxy)thiophene-2-carboxamido)piperidin-1-yl)pyrrolo[2,1-f][1,2,4]triazin-7-yl)-2,5-dihydro-1H-pyrrole-1-carboxylate]
14 nM	CN(C)CCOc1cc(Cl)sc1C(=O)N[C@@H]1CCCN(c2cc(C3=CCN(C(=O)C4CCCOC4)C3)n3ncnc(N)c23)C1 (stereo partly drawn) [Example 909, N-((3R)-1-(4-amino-7-(1-(tetrahydro-2H-pyran-3-carbonyl)-2,5-dihydro-1H-pyrrol-3~yl)pyrrolo[2,1-f][1,2,4]triazin-5-y1)piperidin-3-y1)-5-chloro-3-(2-(dimethylamino)ethoxy)thiophene-2-carboxamide]
7 nM	CC(=O)N1CC=C(c2cc(N3CCC[C@@H](NC(=O)c4cccc(NCCN(C)C)n4)C3)c3c(N)ncnn23)C1 [Example 761, (R)-N-(1-(7-(1-acetyl-2,5-dihydro-1H-pyrrol-3-yl)-4-aminopyrrolo[2,1-f][1,2,4]triazin-5-yl)piperidin-3-yl)-6-((2-(dimethylamino)ethyl)amino)picolinamide]
24 nM	CC(=O)N1CC=C(c2cc(N3CCC[C@@H](NC(=O)c4cccc(NCCS(C)(=O)=O)n4)C3)c3c(N)ncnn23)C1 [Example 767, (R)-N-(1-(7-(1-acetyl-2,5-dihydro-1H-pyrrol-3-yl)-4-aminopyrrolo[2,1-f][1,2,4]triazin-5-yl)piperidin-3-yl)-6-((2-(methylsulfonyl)ethyl)amino)picolinamide]
11 nM	CC(=O)N1CC=C(c2cc(N3CCC[C@@H](NC(=O)c4cccc(N5CCN(C)CC5)n4)C3)c3c(N)ncnn23)C1 [Example 704, (R)-N-(1-(7-(1-acetyl-2,5-dihydro-1H-pyrrol-3-yl)-4-aminopyrrolo[2,1-f][1,2,4]triazin-5-yl)piperidin-3-yl)-6-(4-methylpiperazin-1-yl)picolinamide]
2 nM	Nc1ncnn2c(-c3ccnc(C(F)F)c3)cc(N3CCC[C@@H](NC(=O)c4sc(Cl)cc4OCCN4CCOCC4)C3)c12 [Example 341, (R)—N-(1-(4-amino-7-(2-(difluoromethyl)pyridin-4-yl)pyrrolo[2,1-f][1,2,4]triazin-5-yl)piperidin-3-yl)-5-chloro-3-(2-morpholinoethoxy)thiophene-2-carboxamide]
18 nM	CC(=O)N1CC=C(c2cc(N3CCC[C@@H](NC(=O)c4ccc(CO)cc4)C3)c3c(N)ncnn23)C1 [Example 457, (R)-N-(1-(7-(1-acetyl-2,5-dihydro-1H-pyrrol-3-yl)-4-aminopyrrolo[2,1-f][1,2,4]triazin-5-yl)piperidin-3-yl)-4-(hydroxymethyl)benzamide]

— patent US20260250290A1 (BRISTOL-MYERS SQUIBB COMPANY, priority 2023, published 2026)
